In publication PMC8583760, “Pharmacokinetic interaction between rhynchopylline and pellodendrine via CYP450 enzymes and P-gp” (Pharmaceutical Biology, 2021):

Tests used:
CYP2C9 = test system: T1, CYP2C9; assay: CYP probe substrate depletion in rat liver microsomes, HPLC; format: biochemical; conditions: typical CYP2C9 substrate (not named); 0-100 μM inhibitor
T1 construct: gene Cyp2c11; native enzyme activity in rat liver microsomes

CYP1A2 = target: T2, CYP1A2 (Rattus norvegicus, UniProt P04799); assay: as above; format: biochemical; conditions: typical CYP1A2 substrate (not named); 0-100 μM inhibitor
T2 construct: native full-length enzyme in rat liver microsomes
T2 sequence (P04799 2-513): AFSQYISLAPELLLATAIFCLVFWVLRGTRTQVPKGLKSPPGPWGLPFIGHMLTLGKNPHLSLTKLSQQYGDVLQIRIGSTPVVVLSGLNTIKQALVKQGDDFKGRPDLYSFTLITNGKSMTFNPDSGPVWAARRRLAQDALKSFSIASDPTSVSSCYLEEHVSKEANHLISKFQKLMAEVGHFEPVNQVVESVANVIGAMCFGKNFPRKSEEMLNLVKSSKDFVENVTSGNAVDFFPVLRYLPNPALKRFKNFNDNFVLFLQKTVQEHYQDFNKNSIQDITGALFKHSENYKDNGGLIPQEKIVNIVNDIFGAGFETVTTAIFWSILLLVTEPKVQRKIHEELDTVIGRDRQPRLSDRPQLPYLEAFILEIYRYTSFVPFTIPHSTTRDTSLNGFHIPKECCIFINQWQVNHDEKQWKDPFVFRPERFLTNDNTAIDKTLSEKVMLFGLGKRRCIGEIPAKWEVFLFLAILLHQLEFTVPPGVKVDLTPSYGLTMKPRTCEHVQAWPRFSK

IC50 (CYP2C9): 16.2 µM
IC50 (CYP1A2): 23 µM
Structure (SMILES): COc1cc2c(cc1O)C[C@H]1c3cc(O)c(OC)cc3CC[N@@+]1(C)C2 [pellodendrine]
